Test results: publication PMC8494430, “Development of a fluorogenic ADAMTS-7 substrate” (Journal of Enzyme Inhibition and Medicinal Chemistry, 2021)

What was measured:
Format in all cases: biochemical
[1] = target: T1, MMP-2 (Homo sapiens, UniProt P08253); test: MMP-2 FRET peptide inhibition assay; conditions: Cheng-Prusoff, read-out: Ki app MMP-2
T1 sequence (P08253 110-660): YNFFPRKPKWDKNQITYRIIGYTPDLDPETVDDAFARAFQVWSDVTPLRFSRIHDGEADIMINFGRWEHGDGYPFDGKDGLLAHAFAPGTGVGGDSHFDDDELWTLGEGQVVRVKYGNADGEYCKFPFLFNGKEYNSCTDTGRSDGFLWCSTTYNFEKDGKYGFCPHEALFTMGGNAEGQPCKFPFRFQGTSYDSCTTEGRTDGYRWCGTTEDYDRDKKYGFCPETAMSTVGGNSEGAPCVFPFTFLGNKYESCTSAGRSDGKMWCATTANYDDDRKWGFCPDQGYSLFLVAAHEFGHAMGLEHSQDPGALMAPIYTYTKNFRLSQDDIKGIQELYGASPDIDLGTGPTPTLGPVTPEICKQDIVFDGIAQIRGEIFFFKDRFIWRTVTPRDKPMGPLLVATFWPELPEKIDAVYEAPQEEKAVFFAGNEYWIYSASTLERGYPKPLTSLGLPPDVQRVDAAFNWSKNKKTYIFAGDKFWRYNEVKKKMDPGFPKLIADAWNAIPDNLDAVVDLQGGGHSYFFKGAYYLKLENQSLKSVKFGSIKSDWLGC
Source text: (§1) Substrate and Km values are in micromolar.
(§2) 2,3-diaminopropionyl diaminopropionic amide; Fam, 5,6-carboxyfluorescein; Mca, 7-
(§3) Enzyme Substrate [S] Km Reference

[2] = target: MMP-12 (Homo sapiens, UniProt P39900); test: MMP-12 FRET peptide inhibition assay; conditions: Cheng-Prusoff, read-out: Ki app MMP-12
Source text: as §1, §2, §3

[3] = target: T2, ADAMTS-8 (Homo sapiens, UniProt Q9UP79); test: Cleavage of ATS7FP7 by ADAMTS-8; conditions: ADAMTS-8 10 nM, ATS7FP7 40 μM
T2 construct: made in house; host or cells: HEK293T
T2 sequence (Q9UP79 214-889): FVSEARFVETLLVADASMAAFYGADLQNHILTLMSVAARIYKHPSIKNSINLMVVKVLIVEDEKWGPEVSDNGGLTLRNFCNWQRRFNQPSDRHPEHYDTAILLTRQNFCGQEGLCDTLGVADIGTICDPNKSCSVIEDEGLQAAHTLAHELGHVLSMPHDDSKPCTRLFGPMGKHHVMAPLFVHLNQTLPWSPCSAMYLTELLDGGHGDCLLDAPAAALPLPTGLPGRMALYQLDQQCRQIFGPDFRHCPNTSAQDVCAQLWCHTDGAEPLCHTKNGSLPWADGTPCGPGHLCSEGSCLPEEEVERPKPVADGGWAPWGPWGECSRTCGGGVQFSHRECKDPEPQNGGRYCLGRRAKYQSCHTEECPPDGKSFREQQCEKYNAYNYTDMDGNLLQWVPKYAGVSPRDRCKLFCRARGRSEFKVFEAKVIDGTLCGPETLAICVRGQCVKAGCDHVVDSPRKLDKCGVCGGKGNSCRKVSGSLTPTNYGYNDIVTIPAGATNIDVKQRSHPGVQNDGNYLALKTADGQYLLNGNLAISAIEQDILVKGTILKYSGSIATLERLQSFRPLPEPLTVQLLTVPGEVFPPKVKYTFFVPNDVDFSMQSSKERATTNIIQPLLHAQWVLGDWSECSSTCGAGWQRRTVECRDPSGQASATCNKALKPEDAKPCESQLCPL
Experimental: (§4) All enzyme assays were conducted in TNC-B buffer (50 mM Tris- HCl, pH 7.5, 150 mM NaCl, 10 mM CaCl2, and 0.02% NaN3) at 37 °C in 384 well plates (Cat. No: 784900, Greiner Bio-One, Austria). To avoid the formation of inhibitor or peptide aggregates, the detergent Brij-35 (0.05%) was added to TNC-B[13]. For inhibition studies, stock solutions of chemical compounds were prepared in dimethyl sulfoxide (DMSO) (10 mM). These were further diluted at different concentrations in TNC-B and incubated with ADAMTS-1, ADAMTS-4, ADAMTS-5, ADAMTS-7 or ADAMTS-8 (10 nM) for 1 h at 37 °C. Blank samples were prepared using buffer only and the rate of cleavage for blank reactions was subtracted from the rates measured in the presence of enzyme. Upon addition of the indicated ADAMTS-7 FRET substrates (40 µM), the fluorescence was measured immediately using a FLUOstar Omega microplate reader (BMG Labtech, Germany) with an excitation filter wavelength of 485 nm and an emission filter wavelength of 520 nm.
Supplementary Figure 6: Cleavage of ATS7FP7 by members of the ADAMTS family. A) ATS7FP7 (40 μM) was incubated either with ADAMTS-1, -4, -5, -7, or -8 (10 nM). Fluorescence was detected (λex = 485 nm, λem = 520 nm) for 8 h at 37°C and reported as relative fluorescence units (RFU). The data are presented as average ± SEM (n=3) and were fitted with a linear regression. […]

[4] = target: T3, ADAMTS-4 (Homo sapiens, UniProt O75173); test: Cleavage of ATS7FP7 by ADAMTS-4 (kinetic constants); conditions: cleavage of ATS7FP7 by ADAMTS-4 (10 nM), 37 °C
T3 construct: made in house
T3 sequence (O75173 213-837): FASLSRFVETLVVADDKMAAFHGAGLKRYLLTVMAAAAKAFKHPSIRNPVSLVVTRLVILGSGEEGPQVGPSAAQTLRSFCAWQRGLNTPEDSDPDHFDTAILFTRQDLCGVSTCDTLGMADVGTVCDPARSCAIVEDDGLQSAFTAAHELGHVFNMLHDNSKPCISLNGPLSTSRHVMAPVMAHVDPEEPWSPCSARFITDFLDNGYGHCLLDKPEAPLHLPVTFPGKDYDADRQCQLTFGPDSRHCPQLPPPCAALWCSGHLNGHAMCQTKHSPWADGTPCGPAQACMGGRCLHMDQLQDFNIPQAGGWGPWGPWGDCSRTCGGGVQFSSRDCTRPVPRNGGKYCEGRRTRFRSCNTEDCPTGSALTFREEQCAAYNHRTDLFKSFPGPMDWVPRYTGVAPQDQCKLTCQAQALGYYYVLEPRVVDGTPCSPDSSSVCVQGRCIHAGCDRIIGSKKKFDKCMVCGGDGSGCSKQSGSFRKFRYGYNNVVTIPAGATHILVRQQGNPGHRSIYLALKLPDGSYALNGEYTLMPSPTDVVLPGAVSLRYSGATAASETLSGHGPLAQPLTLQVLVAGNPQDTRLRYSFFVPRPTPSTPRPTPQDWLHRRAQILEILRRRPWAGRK
Experimental: as §4, with “nm. […]” for “nm.”
Supplementary Figure 6: Cleavage of ATS7FP7 by members of the ADAMTS family. […] Fluorescence was detected (λex = 485 nm, λem = 520 nm) for 8 h at 37°C and reported as relative fluorescence units (RFU). […]

Chain of MMP-12 (P39900 106-470): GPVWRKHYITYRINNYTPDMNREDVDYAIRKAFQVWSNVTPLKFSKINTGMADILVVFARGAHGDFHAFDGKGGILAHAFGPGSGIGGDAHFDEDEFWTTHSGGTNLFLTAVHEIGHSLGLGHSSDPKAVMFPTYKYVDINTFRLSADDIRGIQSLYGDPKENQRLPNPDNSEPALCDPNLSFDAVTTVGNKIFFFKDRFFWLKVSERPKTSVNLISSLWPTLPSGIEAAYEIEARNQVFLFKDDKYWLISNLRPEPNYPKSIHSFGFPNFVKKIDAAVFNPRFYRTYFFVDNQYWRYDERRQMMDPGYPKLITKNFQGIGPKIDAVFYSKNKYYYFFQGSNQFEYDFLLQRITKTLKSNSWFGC

With `O=C(NCCC[C@@H](NS(=O)(=O)c1ccc(OCc2ccc(F)cc2Cl)cc1)C(=O)NO)c1ccccc1` [EDV33] as the molecule, how does the Ki [1] read?
The Ki was 4 ± 0.3 nM.

And the Ki [2]?
The Ki was 0.53 ± 0.06 nM.

“Glu-Ala-Ala-Ala-Arg↓Ala-Glu↓Ala-Ala-Ala-Lys [ATS7FP7]” was tested. Which “cleavage by ADAMTS-8” value [3] did it give?
The value was “neither ADAMTS-1 nor ADAMTS-8 were able to cleave ATS7FP7”.

And the Km [4]?
The Km was 9.5 ± 1.7 µM.

What about the kcat [4] of the same molecule?
Its kcat is 0.116 ± 0.0060 s⁻¹.
